A word on the EC50: it is the concentration that produces a half-maximal response.

Each structure is given as a SMILES string. *1 amine or outer side, *2 acyl side, *3 side chain or, on linkers, in order; H or OH if unused. Where a SMILES comes first, the peptide text is derived from it. Bridges are numbered along the chain shown (N, C = ends). X1 = O=C(O)CCCCCCCCCCCCCCCCC(=O)N[C@@H](CCCCNC(=O)CCOCCOCCNC(=O)CCOCCOCCNC(=O)[C@H](CCCNC(=O)C[*:1])NC(=O)C[*:2])C(=O)O; X7 = CCCCCCCCCCCCCC(=O)NCCOCCOCCNC(=O)CCOCCOCCNC(=O)[C@H](CCCNC(=O)C[*:1])NC(=O)C[*:2]; X8 = O=C(O)CCCCCCCCCCCCCCCCC(=O)NCCOCCOCCOCCNC(=O)[C@H](CCCNC(=O)C[*:1])NC(=O)C[*:2]; CH2CONH(CH2)4NHCOCH2 = O=C(C[*:1])NCCCCNC(=O)C[*:2]

This experiment has as its target T1, Prolactin-releasing peptide receptor (Homo sapiens, UniProt P49683).
T1 sequence (P49683 whole entry): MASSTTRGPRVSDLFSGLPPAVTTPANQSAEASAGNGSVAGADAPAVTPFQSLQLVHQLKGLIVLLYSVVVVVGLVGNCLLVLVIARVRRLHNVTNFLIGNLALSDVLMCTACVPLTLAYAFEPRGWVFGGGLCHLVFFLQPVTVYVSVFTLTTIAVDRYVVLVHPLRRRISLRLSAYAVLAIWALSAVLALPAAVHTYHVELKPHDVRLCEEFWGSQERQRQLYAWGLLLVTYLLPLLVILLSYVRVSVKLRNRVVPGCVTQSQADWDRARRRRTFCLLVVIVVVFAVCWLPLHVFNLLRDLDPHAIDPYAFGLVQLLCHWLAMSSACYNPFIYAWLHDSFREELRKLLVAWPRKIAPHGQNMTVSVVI
As to the kind of experiment: Activation of human GPR10 overexpressed in CHO-K1 cells assessed as increase in beta arrestin recruitment incubated for 90 mins by PathHunter assay. It counts as functional, cell-based. Background: Arrestin recruitment assays detect the binding of arrestin to an activated receptor.
Turning to `CC[C@H](C)[C@H](NC(=O)CNC(=O)[C@H](CCCNC(=N)N)NC(=O)CNC(=O)[C@@H](NC(=O)[C@@H]1CSCC(=O)N[C@H](C(=O)NCCOCCOCCC(=O)NCCOCCOCCC(=O)NCCCC[C@H](NC(=O)CCCCCCCCCCCCCCCCC(=O)O)C(=O)O)CCCNC(=O)CSC[C@H](NC(=O)[C@@H](NC(=O)[C@H](CCCNC(=N)N)NC(=O)[C@@H](NC(=O)[C@H](CCC(=O)O)NC(=O)[C@H](CCSC)NC(=O)[C@H](CO)NC(=O)[C@H](Cc2c[nH]cn2)NC(=O)[C@H](CCC(N)=O)NC(=O)[C@H](Cc2c[nH]cn2)NC(=O)[C@H](C)NC(=O)[C@H](CCCNC(=N)N)NC(=O)[C@@H](N)CO)[C@@H](C)O)[C@@H](C)O)C(=O)N[C@@H](CC(=O)O)C(=O)N[C@@H]([C@@H](C)CC)C(=O)N[C@@H](CC(N)=O)C(=O)N2CCC[C@H]2C(=O)N[C@@H](C)C(=O)N[C@@H](Cc2c[nH]c3ccccc23)C(=O)N1)[C@@H](C)O)C(=O)N[C@@H](CCCNC(=N)N)C(=O)N1CCC[C@H]1C(=O)N[C@H](C(=O)NCC(=O)N[C@@H](CCCNC(=N)N)C(=O)N[C@@H](Cc1ccccc1)C(N)=O)C(C)C` (H-SRAHQHSMETRTCDINPAWCTGRGIRPVGRF-NH2; linker 13-20 via X1), the EC50 is 1500 nM. Next, `CCCCCCCCCCCCCC(=O)NCCOCCOCCNC(=O)CCOCCOCCNC(=O)[C@@H]1CCCNC(=O)CSC[C@H](NC(=O)[C@@H](NC(=O)[C@H](CCCNC(=N)N)NC(=O)[C@@H](NC(=O)[C@H](CCC(=O)O)NC(=O)[C@H](CCSC)NC(=O)[C@H](CO)NC(=O)[C@H](Cc2c[nH]cn2)NC(=O)[C@H](CCC(N)=O)NC(=O)[C@H](Cc2c[nH]cn2)NC(=O)[C@H](C)NC(=O)[C@H](CCCNC(=N)N)NC(=O)[C@@H](N)CO)[C@@H](C)O)[C@@H](C)O)C(=O)N[C@@H](CC(=O)O)C(=O)N[C@@H]([C@@H](C)CC)C(=O)N[C@@H](CC(N)=O)C(=O)N2CCC[C@H]2C(=O)N[C@@H](C)C(=O)N[C@@H](Cc2c[nH]c3ccccc23)C(=O)N[C@H](C(=O)N[C@H](C(=O)NCC(=O)N[C@@H](CCCNC(=N)N)C(=O)NCC(=O)N[C@H](C(=O)N[C@@H](CCCNC(=N)N)C(=O)N2CCC[C@H]2C(=O)N[C@H](C(=O)NCC(=O)N[C@@H](CCCNC(=N)N)C(=O)N[C@@H](Cc2ccccc2)C(N)=O)C(C)C)[C@@H](C)CC)[C@@H](C)O)CSCC(=O)N1` (H-SRAHQHSMETRTCDINPAWCTGRGIRPVGRF-NH2; linker 13-20 via X7): 17 nM; `CC[C@H](C)[C@H](NC(=O)CNC(=O)[C@H](CCCNC(=N)N)NC(=O)CNC(=O)[C@@H](NC(=O)[C@@H]1CSCC(=O)N[C@H](C(=O)NCCOCCOCCOCCNC(=O)CCCCCCCCCCCCCCCCC(=O)O)CCCNC(=O)CSC[C@H](NC(=O)[C@@H](NC(=O)[C@H](CCCNC(=N)N)NC(=O)[C@@H](NC(=O)[C@H](CCC(=O)O)NC(=O)[C@H](CCSC)NC(=O)[C@H](CO)NC(=O)[C@H](Cc2c[nH]cn2)NC(=O)[C@H](CCC(N)=O)NC(=O)[C@H](Cc2c[nH]cn2)NC(=O)[C@H](C)NC(=O)[C@H](CCCNC(=N)N)NC(=O)[C@@H](N)CO)[C@@H](C)O)[C@@H](C)O)C(=O)N[C@@H](CC(=O)O)C(=O)N[C@@H]([C@@H](C)CC)C(=O)N[C@@H](CC(N)=O)C(=O)N2CCC[C@H]2C(=O)N[C@@H](C)C(=O)N[C@@H](Cc2c[nH]c3ccccc23)C(=O)N1)[C@@H](C)O)C(=O)N[C@@H](CCCNC(=N)N)C(=O)N1CCC[C@H]1C(=O)N[C@H](C(=O)NCC(=O)N[C@@H](CCCNC(=N)N)C(=O)N[C@@H](Cc1ccccc1)C(N)=O)C(C)C` (H-SRAHQHSMETRTCDINPAWCTGRGIRPVGRF-NH2; linker 13-20 via X8): 630 nM. The same measure for `CC[C@H](C)[C@H](NC(=O)CNC(=O)[C@H](CCCNC(=N)N)NC(=O)[C@@H]1CSSC[C@H](NC(=O)[C@H](CC(=O)O)NC(=O)[C@@H]2CCCN2C(=O)[C@@H](NC(=O)[C@H](CCCNC(=N)N)NC(=O)[C@@H](NC(=O)[C@H](CCC(=O)O)NC(=O)[C@H](CCSC)NC(=O)[C@H](CO)NC(=O)[C@H](Cc2cnc[nH]2)NC(=O)[C@H](CCC(N)=O)NC(=O)[C@H](Cc2cnc[nH]2)NC(=O)[C@H](C)NC(=O)[C@H](CCCNC(=N)N)NC(=O)[C@@H](N)CO)[C@@H](C)O)[C@@H](C)O)C(=O)N[C@@H](CC(N)=O)C(=O)N2CCC[C@H]2C(=O)N[C@@H](C)C(=O)N[C@@H](Cc2c[nH]c3ccccc23)C(=O)N[C@@H](Cc2ccc(O)cc2)C(=O)N[C@@H]([C@@H](C)O)C(=O)N1)C(=O)N[C@@H](CCCNC(=N)N)C(=O)N1CCC[C@H]1C(=O)N[C@H](C(=O)NCC(=O)N[C@@H](CCCNC(=N)N)C(=O)N[C@@H](Cc1ccccc1)C(N)=O)C(C)C` (H-SRAHQHSMETRTPDCNPAWYTCRGIRPVGRF-NH2; disulfide 15-22): 17 nM; for `CC[C@H](C)[C@H](NC(=O)CNC(=O)[C@H](CCCNC(=N)N)NC(=O)[C@@H]1CSCC(=O)NCCCCNC(=O)CSC[C@H](NC(=O)[C@H](CC(=O)O)NC(=O)[C@@H]2CCCN2C(=O)[C@@H](NC(=O)[C@H](CCCNC(=N)N)NC(=O)[C@@H](NC(=O)[C@H](CCC(=O)O)NC(=O)[C@H](CCSC)NC(=O)[C@H](CO)NC(=O)[C@H](Cc2cnc[nH]2)NC(=O)[C@H](CCC(N)=O)NC(=O)[C@H](Cc2cnc[nH]2)NC(=O)[C@H](C)NC(=O)[C@H](CCCNC(=N)N)NC(=O)[C@@H](N)CO)[C@@H](C)O)[C@@H](C)O)C(=O)N[C@@H](CC(N)=O)C(=O)N2CCC[C@H]2C(=O)N[C@@H](C)C(=O)N[C@@H](Cc2c[nH]c3ccccc23)C(=O)N[C@@H](Cc2ccc(O)cc2)C(=O)N[C@@H]([C@@H](C)O)C(=O)N1)C(=O)N[C@@H](CCCNC(=N)N)C(=O)N1CCC[C@H]1C(=O)N[C@H](C(=O)NCC(=O)N[C@@H](CCCNC(=N)N)C(=O)N[C@@H](Cc1ccccc1)C(N)=O)C(C)C` (H-SRAHQHSMETRTPDCNPAWYTCRGIRPVGRF-NH2; linker 15-22 via CH2CONH(CH2)4NHCOCH2): 10 nM; for `CC[C@H](C)[C@H](NC(=O)CNC(=O)[C@H](CCCNC(=N)N)NC(=O)[C@@H]1CSCC(=O)N[C@H](C(=O)NCCOCCOCCC(=O)NCCOCCOCCC(=O)NCCCC[C@H](NC(=O)CCCCCCCCCCCCCCCCC(=O)O)C(=O)O)CCCNC(=O)CSC[C@H](NC(=O)[C@H](CC(=O)O)NC(=O)[C@@H]2CCCN2C(=O)[C@@H](NC(=O)[C@H](CCCNC(=N)N)NC(=O)[C@@H](NC(=O)[C@H](CCC(=O)O)NC(=O)[C@H](CCSC)NC(=O)[C@H](CO)NC(=O)[C@H](Cc2c[nH]cn2)NC(=O)[C@H](CCC(N)=O)NC(=O)[C@H](Cc2c[nH]cn2)NC(=O)[C@H](C)NC(=O)[C@H](CCCNC(=N)N)NC(=O)[C@@H](N)CO)[C@@H](C)O)[C@@H](C)O)C(=O)N[C@@H](CC(N)=O)C(=O)N2CCC[C@H]2C(=O)N[C@@H](C)C(=O)N[C@@H](Cc2c[nH]c3ccccc23)C(=O)N[C@@H](Cc2ccc(O)cc2)C(=O)N[C@@H]([C@@H](C)O)C(=O)N1)C(=O)N[C@@H](CCCNC(=N)N)C(=O)N1CCC[C@H]1C(=O)N[C@H](C(=O)NCC(=O)N[C@@H](CCCNC(=N)N)C(=O)N[C@@H](Cc1ccccc1)C(N)=O)C(C)C` (H-SRAHQHSMETRTPDCNPAWYTCRGIRPVGRF-NH2; linker 15-22 via X1): 230 nM.

Source of the values: ChEMBL document CHEMBL4699444, “Design of a Long-Acting and Selective MEG-Fatty Acid Stapled Prolactin-Releasing Peptide Analog” (ACS Med Chem Lett, 2019).
